Experimental data reported in patent publication US12448389B2, “BRM targeting compounds and associated methods of use” (Prelude Therapeutics Incorporated, priority 2020, dated 2025).

Experiments:
SMARCA2 = target: T1, SMARCA2 (Homo sapiens, UniProt P51531); test: SMARCA2 protein degradation in NCIH520 cells by In Cell Western (ICW); format: cell-based; conditions: highest concentration 1 μM; for DC50: H520 cells, overnight incubation (maximum 18 hours), read-out: DC50 (SM2_H520): SMARCA2 degradation potency; for Dmax: NCI-H520, overnight incubation (maximum 18 hours), read-out: Dmax % (SM2_H520): maximum SMARCA2 degradation within the concentrations tested
T1 construct: endogenous in cells; host or cells: NCI-H520 (given as NCIH520 / NCIH1520 / H520)
T1 sequence (P51531 whole entry): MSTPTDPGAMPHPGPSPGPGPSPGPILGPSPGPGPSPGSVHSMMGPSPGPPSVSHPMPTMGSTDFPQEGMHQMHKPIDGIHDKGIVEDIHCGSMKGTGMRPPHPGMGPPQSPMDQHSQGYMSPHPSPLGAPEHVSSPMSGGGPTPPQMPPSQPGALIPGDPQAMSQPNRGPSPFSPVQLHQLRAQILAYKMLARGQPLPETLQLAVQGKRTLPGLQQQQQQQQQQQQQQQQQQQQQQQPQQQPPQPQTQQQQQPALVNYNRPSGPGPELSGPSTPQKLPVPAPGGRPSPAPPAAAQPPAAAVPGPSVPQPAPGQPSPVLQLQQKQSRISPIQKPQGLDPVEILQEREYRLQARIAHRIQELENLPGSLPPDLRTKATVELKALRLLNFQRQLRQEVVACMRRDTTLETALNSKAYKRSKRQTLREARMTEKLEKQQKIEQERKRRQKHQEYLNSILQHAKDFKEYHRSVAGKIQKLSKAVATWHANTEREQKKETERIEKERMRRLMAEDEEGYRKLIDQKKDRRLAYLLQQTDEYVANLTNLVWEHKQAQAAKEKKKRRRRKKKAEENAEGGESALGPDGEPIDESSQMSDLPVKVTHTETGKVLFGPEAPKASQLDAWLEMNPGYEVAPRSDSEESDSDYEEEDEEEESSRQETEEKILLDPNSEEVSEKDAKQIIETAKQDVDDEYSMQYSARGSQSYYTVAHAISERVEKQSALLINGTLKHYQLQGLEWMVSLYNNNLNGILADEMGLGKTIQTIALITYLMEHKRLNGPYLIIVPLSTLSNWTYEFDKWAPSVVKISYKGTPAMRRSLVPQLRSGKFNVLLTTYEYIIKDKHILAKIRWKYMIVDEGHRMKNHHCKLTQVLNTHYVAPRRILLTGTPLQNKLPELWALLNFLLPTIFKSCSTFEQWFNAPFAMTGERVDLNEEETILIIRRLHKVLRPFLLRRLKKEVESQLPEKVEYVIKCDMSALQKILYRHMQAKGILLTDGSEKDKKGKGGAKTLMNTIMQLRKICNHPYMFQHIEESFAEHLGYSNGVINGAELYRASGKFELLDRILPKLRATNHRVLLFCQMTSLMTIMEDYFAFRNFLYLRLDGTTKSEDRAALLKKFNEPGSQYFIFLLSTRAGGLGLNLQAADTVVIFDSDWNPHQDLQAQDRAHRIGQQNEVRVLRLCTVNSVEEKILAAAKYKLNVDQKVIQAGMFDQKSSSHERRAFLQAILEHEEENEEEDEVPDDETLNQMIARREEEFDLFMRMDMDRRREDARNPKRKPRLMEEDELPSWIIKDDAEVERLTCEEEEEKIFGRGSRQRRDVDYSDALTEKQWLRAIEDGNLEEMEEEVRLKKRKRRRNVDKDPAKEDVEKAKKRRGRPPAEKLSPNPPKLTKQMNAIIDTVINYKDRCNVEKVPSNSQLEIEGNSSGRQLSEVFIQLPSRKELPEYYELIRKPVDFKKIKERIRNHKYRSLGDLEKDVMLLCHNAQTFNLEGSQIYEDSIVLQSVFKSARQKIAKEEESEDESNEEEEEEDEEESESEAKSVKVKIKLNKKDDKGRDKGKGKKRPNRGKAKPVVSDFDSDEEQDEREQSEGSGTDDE
Method: (§1) Compounds were dissolved in DMSO to make 10 mM stock and 3-fold series dilutions were further conducted keeping the highest concentration 10 μM. NCIH11693 and NCIH1520 cells were maintained in PRMI 1640 medium (Corning Cellgro, Catalog #: 10-040-CV) supplemented with 10% v/v FBS (GE Healthcare, Catalog #: SH30910.03) by splitting 1:3 twice a week.
(§2) SMACRA2 and SMARCA4 Protein Degradation DC50 Values in NCIH1693 and NCIH520 Cells by in Cell Western (ICW) Analysis.
(§3) Cells were trypsinized and 30 thousand cells/well were seeded into 384-well plates and were allowed to grow for 1-2 hours at 37° C. Eight-point, 3-fold serial dilutions of compounds from 0.5 mM stocks were added to the cells (using digital Dispenser D300-Tecan, keeping highest concentration 1 μM and normalizing with DMSO at the highest dispensed volume). Plates were incubated at 37° C. for overnight (maximum 18 hours). Cells incubated with DMSO was used as a vehicle control.
(§4) To perform In Cell Western, medium was removed from all the wells leaving cells attached to the surface. After removing the medium, cells were fixed within the plates with 40 μL of 4% formaldehyde by incubating at room temperature for 30 minutes, and then permeabilized with wash buffer (1×PBS with 0.1% Triton X-100) by washing the plate 5 times with 50 μL/well. Before labeling with primary antibodies, cells were blocked with 30 μL/well of blocking buffer (Licor Odyssey blocking buffer PBS #927-40000) for 30 minutes at room temperature. To measure SMARCA2 or SMARCA4 proteins, cells were labeled with 20 μL/well of anti SMARCA2 or SMACRA4 antibodies (Cell Signaling BRM #11966S 1:800, Cell Signaling BRG #49360S 1:800) diluted in Li-Cor Odyssey blocking buffer-PBS #927-40000, followed by overnight incubation at 4° C.
(§5) The next day, plates were washed 5×5 minutes with 50 μL/well of washing buffer to remove all the excess primary antibody and then 20 μL from a mixture of secondary antibody and fluorescent DNA specific dye (Goat anti rabbit 1:500 IRDye-800CW #92632211, and DRAQ5™ 1:2000-#ab108410) was added to each well. Plates were incubated for 1 hour at room temperature with gentle rocking. Cells were washed 5 times with 50 μL/well wash buffer, followed by one last wash with DI water, followed by 10 mins drying at 37° C. oven before scanning. Plates were scanned using Li-Cor Odyssey CLx imaging system to acquire integrated intensities at 700 nm and 800 nm. SMARCA signals were normalized to total cell count and then these normalized values were used to calculate the percent degradation relative to DMSO control and maximum inhibition. DC50s were calculated by using the GraphPad Prism4 program based on sigmoidal dose response equation ([Inhibitor] vs. normalized response-Variable slope).
(§6) In Table 36, the DC50/Dmax% (SM2_H520) refers to SMARCA2 degradation potency/maximum SMARCA2 degradation within the concentrations in H520 cells and DC50/Dmax% (SM4_H520) refers to SMARCA4 degradation potency/maximum SMARCA4 degradation within the concentrations tested in H520 cells.

SMARCA4 = target: T2, SMARCA4 (Homo sapiens, UniProt P51532); test: SMARCA4 protein degradation in NCIH520 cells by In Cell Western (ICW); format: cell-based; conditions: highest concentration 1 μM; for DC50: H520 cells, overnight incubation (maximum 18 hours), read-out: DC50 (SM4_H520): SMARCA4 degradation potency; for Dmax: NCI-H520, overnight incubation (maximum 18 hours), read-out: Dmax % (SM4_H520): maximum SMARCA4 degradation within the concentrations tested
T2 construct: endogenous in cells; host or cells: NCI-H520 (given as NCIH520 / NCIH1520 / H520)
T2 sequence (P51532 whole entry): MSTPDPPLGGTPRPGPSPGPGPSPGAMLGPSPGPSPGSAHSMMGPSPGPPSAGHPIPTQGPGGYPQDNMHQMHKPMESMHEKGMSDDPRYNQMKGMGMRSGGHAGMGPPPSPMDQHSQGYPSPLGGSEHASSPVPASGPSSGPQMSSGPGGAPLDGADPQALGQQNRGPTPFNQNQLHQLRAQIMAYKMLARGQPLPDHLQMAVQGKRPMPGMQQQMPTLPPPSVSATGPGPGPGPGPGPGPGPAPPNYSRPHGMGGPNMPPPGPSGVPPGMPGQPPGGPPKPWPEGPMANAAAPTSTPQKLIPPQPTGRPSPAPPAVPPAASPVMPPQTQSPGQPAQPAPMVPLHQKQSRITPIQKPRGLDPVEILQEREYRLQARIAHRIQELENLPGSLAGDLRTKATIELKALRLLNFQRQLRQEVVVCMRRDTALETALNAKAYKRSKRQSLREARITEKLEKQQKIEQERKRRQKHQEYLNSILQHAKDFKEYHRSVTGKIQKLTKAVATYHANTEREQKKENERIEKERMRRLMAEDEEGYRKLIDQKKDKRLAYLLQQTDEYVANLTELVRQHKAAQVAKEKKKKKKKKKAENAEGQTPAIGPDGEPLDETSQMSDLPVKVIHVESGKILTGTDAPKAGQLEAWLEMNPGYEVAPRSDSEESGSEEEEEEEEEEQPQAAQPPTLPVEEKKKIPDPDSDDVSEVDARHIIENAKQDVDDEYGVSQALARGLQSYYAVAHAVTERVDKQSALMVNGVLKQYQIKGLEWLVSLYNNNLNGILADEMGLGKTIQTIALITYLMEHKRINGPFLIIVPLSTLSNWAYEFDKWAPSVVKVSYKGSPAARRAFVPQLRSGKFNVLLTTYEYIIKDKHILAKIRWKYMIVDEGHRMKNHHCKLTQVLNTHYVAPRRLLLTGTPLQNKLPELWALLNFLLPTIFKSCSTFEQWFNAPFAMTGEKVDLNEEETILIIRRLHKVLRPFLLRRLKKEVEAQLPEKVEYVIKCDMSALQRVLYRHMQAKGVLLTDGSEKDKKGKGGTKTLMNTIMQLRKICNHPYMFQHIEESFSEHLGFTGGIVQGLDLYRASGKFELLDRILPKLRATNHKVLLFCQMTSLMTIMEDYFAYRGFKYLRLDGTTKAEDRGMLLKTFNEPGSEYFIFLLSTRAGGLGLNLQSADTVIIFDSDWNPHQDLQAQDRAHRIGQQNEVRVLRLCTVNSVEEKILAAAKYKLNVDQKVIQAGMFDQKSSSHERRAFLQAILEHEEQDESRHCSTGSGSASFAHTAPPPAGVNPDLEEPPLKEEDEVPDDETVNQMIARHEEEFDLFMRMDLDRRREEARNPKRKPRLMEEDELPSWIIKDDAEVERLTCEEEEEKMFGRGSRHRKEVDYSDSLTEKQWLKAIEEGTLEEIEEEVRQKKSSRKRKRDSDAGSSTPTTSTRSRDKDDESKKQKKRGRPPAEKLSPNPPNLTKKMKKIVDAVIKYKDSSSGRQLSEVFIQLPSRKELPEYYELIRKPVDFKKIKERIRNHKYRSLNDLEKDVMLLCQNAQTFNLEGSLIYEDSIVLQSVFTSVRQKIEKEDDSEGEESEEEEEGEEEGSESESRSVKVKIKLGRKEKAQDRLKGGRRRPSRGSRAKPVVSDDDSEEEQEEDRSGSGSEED
Method: as §1, §2, §3, §4, §5, §6

[1] = tested on: SMARCA4 mutated cancer cells; conditions: SMARCA2/4 bromodomain inhibitor; Vangamudi et al. Cancer Res 2015; cited from earlier work

Q: With `O=C1CCC(N2C(=O)c3ccc(N4CCN(CCN5CCC(N6CCN7c8cc(-c9ccccc9O)nnc8NC[C@H]7C6)C5)CC4)cc3C2=O)C(=O)N1` (stereo partly drawn) [Example 12, 2-(2,6-Dioxopiperidin-3-yl)-5-(4-(2-(3-((S)-2-(2-hydroxyphenyl)-5,6,6a,7,9,10-hexahydro-8H-pyrazino[1′,2′:4,5]pyrazino[2,3-c]pyridazin-8-yl)pyrrolidin-1-yl)ethyl)piperazin-1-yl) isoindoline-1,3-dione] as the molecule, how does the DC50 (SMARCA2) read?
A: < 100 nM

Q: And the Dmax (SMARCA2)?
A: > 75%

Q: What about the DC50 (SMARCA4) of the same molecule?
A: < 100 nM

Q: And the Dmax (SMARCA4)?
A: 50 to 75%

Q: Which “effects on cell proliferation inhibition” value [1] does the source give for `O=C(/C=C/N1C[C@H]2C[C@@H]1CN2c1ccccn1)c1ccccc1O` [PFI-3] here?
A: none to minor effects

Q: Which results are given for `O=C1CCC(N2C(=O)c3ccc(N4CCC(OCCN5CCC(N6CCN7c8cc(-c9ccccc9O)nnc8NC[C@H]7C6)CC5)CC4)cc3C2=O)C(=O)N1` (stereo partly drawn) [Example 16, 2-(2,6-Dioxopiperidin-3-yl)-5-(4-(2-(4-((S)-2-(2-hydroxyphenyl)-5,6,6a,7,9,10-hexahydro-8H-pyrazino[1′,2′:4,5]pyrazino[2,3-c]pyridazin-8-yl)piperidin-1-yl)ethoxy)piperidin-1-yl) isoindoline-1,3-dione]?
A: DC50 (SMARCA2): < 100 nM; Dmax (SMARCA2): > 75%; DC50 (SMARCA4): < 100 nM; Dmax (SMARCA4): 50 to 75%

Q: Which DC50 (SMARCA2) does the source give for `O=C1CCC(N2Cc3cc(CCN4CCC(/C=C/c5cnc(N6CCN7c8cc(-c9ccccc9O)nnc8NC[C@H]7C6)nc5)CC4)ccc3C2=O)C(=O)N1` (stereo partly drawn) [Example 7, 3-(5-(2-(4-((E)-2-(2-((S)-2-(2-hydroxyphenyl)-5,6,6a,7,9,10-hexahydro-8H-pyrazino[1′,2′:4,5]pyrazino[2,3-c]pyridazin-8-yl)pyrimidin-5-yl)vinyl)piperidin-1-yl)ethyl)-1-oxoisoindolin-2-yl)piperidine-2,6-dione] here?
A: < 100 nM

Q: What about the Dmax (SMARCA2) of the same molecule?
A: > 75%

Q: What about the DC50 (SMARCA4) of the same molecule?
A: < 100 nM

Q: And the Dmax (SMARCA4)?
A: > 75%

Q: With `O=C1CCC(N2C(=O)c3ccc(N4CCC(N5CCC(N6CCN7c8cc(-c9ccccc9O)nnc8NC[C@H]7C6)CC5)CC4)cc3C2=O)C(=O)N1` (stereo partly drawn) [Example 14, 2-(2,6-dioxopiperidin-3-yl)-5-(4-((S)-2-(2-hydroxyphenyl)-5,6,6a,7,9,10-hexahydro-8H-pyrazino[1′,2′:4,5]pyrazino[2,3-c]pyridazin-8-yl)-[1,4′-bipiperidin]-1′-yl) isoindoline-1,3-dione] as the molecule, how does the DC50 (SMARCA2) read?
A: < 100 nM

Q: And the Dmax (SMARCA2)?
A: > 75%

Q: And the DC50 (SMARCA4)?
A: < 100 nM

Q: And the Dmax (SMARCA4)?
A: > 75%

Q: With `O=C1CCC(N2Cc3cc(CCCN4CCC(c5cnc(N6CCN7c8cc(-c9ccccc9O)nnc8NC[C@@H]7C6)nc5)CC4)ccc3C2=O)C(=O)N1` (stereo partly drawn) [Example 2, 3-(5-(3-(4-(2-((R)-2-(2-hydroxyphenyl)-5,6,6a,7,9,10-hexahydro-8H-pyrazino[1′,2′:4,5]pyrazino[2,3-c]pyridazin-8-yl)pyrimidin-5-yl)piperidin-1-yl)propyl)-1-oxoisoindolin-2-yl)piperidine-2,6-dione] as the molecule, how does the DC50 (SMARCA2) read?
A: < 100 nM

Q: What about the Dmax (SMARCA2) of the same molecule?
A: > 75%

Q: And the DC50 (SMARCA4)?
A: < 100 nM

Q: What about the Dmax (SMARCA4) of the same molecule?
A: > 75%

Q: What does the source list for `O=C1CCC(N2C(=O)c3ccc(N4CCN(CCCN5CCC(N6CCN7c8cc(-c9ccccc9O)nnc8NC[C@H]7C6)CC5)CC4)cc3C2=O)C(=O)N1` (stereo partly drawn) [Example 11, 2-(2,6-Dioxopiperidin-3-yl)-5-(4-(3-(4-((S)-2-(2-hydroxyphenyl)-5,6,6a,7,9,10-hexahydro-8H-pyrazino[1′,2′:4,5]1pyrazino[2,3-c]pyridazin-8-yl)piperidin-1-yl)propyl)piperazin-1-yl) isoindoline-1,3-dione]?
A: DC50 (SMARCA2): < 100 nM; Dmax (SMARCA2): > 75%; DC50 (SMARCA4): < 100 nM; Dmax (SMARCA4): > 75%

Q: For `O=C1CCC(N2Cc3cc(CN4CCC(OCCN5CCC(N6CCN7c8cc(-c9ccccc9O)nnc8NC[C@H]7C6)CC5)CC4)ccc3C2=O)C(=O)N1` (stereo partly drawn) [Example 9, 3-(5-((4-(2-(4-((S)-2-(2-hydroxyphenyl)-5,6,6a,7,9,10-hexahydro-8H-pyrazino[1′,2′:4,5]pyrazino[2,3-c]pyridazin-8-yl)piperidin-1-yl)ethoxy)piperidin-1-yl)methyl)-1-oxoisoindolin-2-yl)piperidine-2,6-dione], which DC50 (SMARCA2) is on record?
A: < 100 nM

Q: What about the Dmax (SMARCA2) of the same molecule?
A: > 75%

Q: And the DC50 (SMARCA4)?
A: < 100 nM

Q: What about the Dmax (SMARCA4) of the same molecule?
A: 50 to 75%

Q: With `O=C1CCC(n2c3ccc(CCCN4CCC(c5cnc(N6CCN7c8cc(-c9ccccc9O)nnc8NC[C@@H]7C6)nc5)CC4)cc3c3cccnc32)C(=O)N1` (stereo partly drawn) [Example 18, 3-(6-(3-(4-(2-((R)-2-(2-hydroxyphenyl)-5,6,6a,7,9,10-hexahydro-8H-pyrazino [1′,2′:4,5]pyrazino[2,3-c]pyridazin-8-yl)pyrimidin-5-yl)piperidin-1-yl)propyl)-9H-pyrido [2,3-b]indol-9-yl)piperidine-2,6-dione] as the molecule, how does the DC50 (SMARCA2) read?
A: < 100 nM

Q: What about the Dmax (SMARCA2) of the same molecule?
A: > 75%

Q: And the DC50 (SMARCA4)?
A: < 100 nM

Q: What about the Dmax (SMARCA4) of the same molecule?
A: > 75%

Q: With `O=C1CCC(n2c3ccc(CCCN4CCC(N5CCC(N6CCN7c8cc(-c9ccccc9O)nnc8NC[C@H]7C6)CC5)CC4)cc3c3cccnc32)C(=O)N1` (stereo partly drawn) [Example 20, 3-(6-(3-(4-((S)-2-(2-hydroxyphenyl)-5,6,6a,7,9,10-hexahydro-8H-pyrazino [1′,2′:4,5]pyrazino[2,3-c]pyridazin-8-yl)-[1,4′-bipiperidin]-1′-yl)propyl)-9H-pyrido[2,3-b]indol-9-yl)piperidine-2,6-dione] as the molecule, how does the DC50 (SMARCA2) read?
A: < 100 nM

Q: And the Dmax (SMARCA2)?
A: > 75%

Q: What about the DC50 (SMARCA4) of the same molecule?
A: < 100 nM

Q: What about the Dmax (SMARCA4) of the same molecule?
A: > 75%

Q: With `O=C1CCC(N2Cc3cc(CCN4CC=C(c5cnc(N6CCN7c8cc(-c9ccccc9O)nnc8NC[C@H]7C6)nc5)CC4)ccc3C2=O)C(=O)N1` (stereo partly drawn) [Example 6, 3-(5-(2-(4-(2-((S)-2-(2-hydroxyphenyl)-5,6,6a,7,9,10-hexahydro-8H-pyrazino[1′,2′:4,5]pyrazino[2,3-c]pyridazin-8-yl)pyrimidin-5-yl)-3,6-dihydropyridin-1(2H)-yl)ethyl)-1-oxoisoindolin-2-yl)piperidine-2,6-dione] as the molecule, how does the DC50 (SMARCA2) read?
A: < 100 nM

Q: And the Dmax (SMARCA2)?
A: > 75%

Q: What about the DC50 (SMARCA4) of the same molecule?
A: < 100 nM

Q: And the Dmax (SMARCA4)?
A: > 75%

Q: With `O=C1CCC(N2Cc3ccc(N4CCN(CCN5CCC(N6CCN7c8cc(-c9ccccc9O)nnc8NC[C@H]7C6)CC5)CC4)cc3C2=O)C(=O)N1` (stereo partly drawn) [Example 17, 3-(6-(4-(2-(4-((S)-2-(2-hydroxyphenyl)-5,6,6a,7,9,10-hexahydro-8H-pyrazino [1′,2′:4,5]pyrazino[2,3-c]pyridazin-8-yl)piperidin-1-yl)ethyl)piperazin-1-yl)-1-oxoisoindolin-2-yl)piperidine-2,6-dione] as the molecule, how does the DC50 (SMARCA2) read?
A: < 100 nM

Q: What about the Dmax (SMARCA2) of the same molecule?
A: > 75%

Q: And the DC50 (SMARCA4)?
A: < 100 nM

Q: And the Dmax (SMARCA4)?
A: > 75%

Q: What does the source list for `O=C1CCC(n2c3ccc(CCCN4CCN(CCN5CCN6c7cc(-c8ccccc8O)nnc7NC[C@H]6C5)CC4)cc3c3cccnc32)C(=O)N1` (stereo partly drawn) [Example 22, 3-(6-(3-(4-(2-((S)-2-(2-hydroxyphenyl)-5,6,6a,7,9,10-hexahydro-8H-pyrazino [1′,2′:4,5]pyrazino[2,3-c]pyridazin-8-yl)ethyl)piperazin-1-yl)propyl)-9H-pyrido[2,3-b]indol-9-yl)piperidine-2,6-dione]?
A: DC50 (SMARCA2): < 100 nM; Dmax (SMARCA2): > 75%; DC50 (SMARCA4): < 100 nM; Dmax (SMARCA4): > 75%

Q: Which DC50 (SMARCA2) does the source give for `O=C1CCC(N2Cc3cc(CCCN4CCC(CCc5cnc(N6CCN7c8cc(-c9ccccc9O)nnc8NC[C@@H]7C6)nc5)CC4)ccc3C2=O)C(=O)N1` (stereo partly drawn) [Example 3, 3-(5-(3-(4-(2-(2-((R)-2-(2-hydroxyphenyl)-5,6,6a,7,9,10-hexahydro-8H-pyrazino[1′,2′:4,5]pyrazino[2,3-c]pyridazin-8-yl)pyrimidin-5-yl)ethyl)piperidin-1-yl)propyl)-1-oxoisoindolin-2-yl)piperidine-2,6-dione] here?
A: < 100 nM

Q: And the Dmax (SMARCA2)?
A: > 75%

Q: What about the DC50 (SMARCA4) of the same molecule?
A: < 100 nM

Q: What about the Dmax (SMARCA4) of the same molecule?
A: > 75%
